Data reported in patent US20240218023A1, “CYCLIC PEPTIDE-N-ACETYLGALACTOSAMINE (GALNAC) CONJUGATES FOR DRUG DELIVERY TO LIVER CELLS” (MICROBIO (SHANGHAI) CO., LTD., priority 2021, published 2024).
Square brackets hold non-standard residues; d marks the D form. Side chains are listed from the residue outwards. * marks the point of attachment. Gal‑1 = GalNAc linker: 5-(GalNAc-oxy)pentanoic acid (3-acetamido-4,5-diacetoxy-6-(acetoxymethyl)tetrahydropyran-2-yl-oxy)pentanoic acid; Gal‑3 = GalNAc linker: 4-(GalNAc-oxy)butanoic acid (3-acetamido-4,5-diacetoxy-6-(acetoxymethyl)tetrahydropyran-2-yl-oxy)butanoic acid; 5FAM = O=C1OC2(c3ccc(O)cc3Oc3cc(O)ccc32)c2ccc(C(=O)*)cc21; Linker2 = 6-aminohexyl amide linker; GalNAc = N-acetylgalactosamine

What was measured:
[1] = system: HepG2 cells; test: Cellular uptake / binding of FAM-labeled ligands to HepG2 cells (flow cytometry, proportion of FAM positive cells); assay type: cell-based, human; details: for Efficiency (%) of cellular uptake (percentage of ligand-bound HepG2 cells): 24 h
Protocol: The human hepatocellular carcinoma (HepG2) cell line was purchased from Shanghai Zhong Qiao Xin Zhou Biotechnology Co., Ltd. and maintained in minimum essential medium (Gibco, ThermoFisher Scientific, USA) with 10% fetal bovine serum (Gibco, ThermoFisher Scientific, USA), 200 units/mL penicillin plus 200 units/mL streptomycin at 37° C. with 5% CO2.
Cells were seeded in 24-well plates with a density of 1.5×10^5 cells per well and incubated under 37° C., 5% CO2. After 18 h of incubation, media were replaced to MEM with 2% FBS and FAM-labeled ligands were added with final concentrations of 1.6, 8, 40 or 200 nM. After 24 h of incubation, cells were washed twice with 1×PBS and analyzed by LSRFortessa (BD Biosciences, NJ, USA). The binding efficiency was evaluated by the proportion of FAM positive cells.
HepG2 cell was treated by 14 cyclic peptide-tri-GalNAc ligand variants with serial diluted concentration of 1.6, 8, 40 or 200 nM. Commercialized tri-GalNAc used in Givosirna was used as positive control and cyclic peptide w/o tri-GalNAc was negative control. […] Equilibrium dissociation constant (kd) for 5-FAM-CPMB-0013 (ID013), 5-FAM-CPMB-0023 (ID023), 5-FAM-CPMB-0035 (ID035) and commercialized tri-GalNAC were 7.0, 8.6, 5.7 and 18 nM, respectively.

[2] = molecular target: asialoglycoprotein receptor (ASGPR) on HepG2 cells (human) (UniProt P07306); test: flow cytometry, % FAM-positive HepG2 cells after 24 h with 8 nM ligand
asialoglycoprotein receptor (ASGPR) on HepG2 cells (human), sequence (P07306 whole entry, chain 1 of 2): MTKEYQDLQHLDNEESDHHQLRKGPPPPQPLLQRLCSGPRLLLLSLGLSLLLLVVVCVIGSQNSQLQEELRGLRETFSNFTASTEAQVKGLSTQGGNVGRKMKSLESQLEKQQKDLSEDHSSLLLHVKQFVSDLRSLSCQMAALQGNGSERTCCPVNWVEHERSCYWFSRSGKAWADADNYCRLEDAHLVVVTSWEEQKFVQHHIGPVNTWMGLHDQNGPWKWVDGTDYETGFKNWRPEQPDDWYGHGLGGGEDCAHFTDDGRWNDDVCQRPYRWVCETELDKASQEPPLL
asialoglycoprotein receptor (ASGPR) on HepG2 cells (human), sequence (P07307 whole entry, chain 2 of 2, further chain): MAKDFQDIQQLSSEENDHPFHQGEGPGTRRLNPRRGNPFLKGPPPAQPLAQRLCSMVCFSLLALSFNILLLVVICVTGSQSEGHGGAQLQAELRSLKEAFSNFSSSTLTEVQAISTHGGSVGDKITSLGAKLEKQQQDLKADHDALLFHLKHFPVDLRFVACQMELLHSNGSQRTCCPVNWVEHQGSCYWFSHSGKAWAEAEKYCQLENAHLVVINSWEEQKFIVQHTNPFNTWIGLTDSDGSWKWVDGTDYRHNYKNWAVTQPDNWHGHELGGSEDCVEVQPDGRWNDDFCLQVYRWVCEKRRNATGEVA

[3] = molecular target: asialoglycoprotein receptor (ASGPR) on HepG2 cells (human) (UniProt P07306); test: flow cytometry, % FAM-positive HepG2 cells after 24 h with 40 nM ligand
[4] = molecular target: asialoglycoprotein receptor (ASGPR) on HepG2 cells (human) (UniProt P07306); test: flow cytometry, % FAM-positive HepG2 cells after 24 h with 1.6 nM ligand
[5] = molecular target: asialoglycoprotein receptor (ASGPR) on HepG2 cells (human) (UniProt P07306); test: flow cytometry, % FAM-positive HepG2 cells after 24 h with 200 nM ligand
[6] = molecular target: asialoglycoprotein receptor (ASGPR) on HepG2 cells (human) (UniProt P07306); test: flow cytometry titration on HepG2 cells (% FAM-positive cells, 1.6-200 nM, 24 h)

| Molecule | Efficiency (%) of cellular uptake (percentage of ligand-bound HepG2 cells) ([1]; 1.6 nM ligand, HepG2) [%] | Efficiency (%) of cellular uptake (percentage of ligand-bound HepG2 cells) ([1]; 8 nM ligand, HepG2) [%] | Efficiency (%) of cellular uptake (percentage of ligand-bound HepG2 cells) ([1]; 40 nM ligand, HepG2) [%] | Efficiency (%) of cellular uptake (percentage of ligand-bound HepG2 cells) ([1]; 200 nM ligand, HepG2) [%] | Kd ([1]; HepG2 cells, read-out: Equilibrium dissociation constant (kd)) [nM] | binding ability as compared to others and commercialized tri-GalNAc ([1]; among 14 variants, HepG2) | Efficiency (%) (proportion of FAM positive cells) [2] | Efficiency (%) (proportion of FAM positive cells) [3] | Efficiency (%) (proportion of FAM positive cells) [4] | Efficiency (%) (proportion of FAM positive cells) [5] | Kd [6] [nM] |
| --- | --- | --- | --- | --- | --- | --- | --- | --- | --- | --- | --- |
| 5-FAM-CPMB-0011: CPS-001 cyclic peptide scaffold, Gal-1 GalNAc linker, 5-FAM label; FIG. 14A (KEKGKG; cyclised or stapled) | 3.0 | 20.1 | 67.7 | 94.2 |  |  |  |  |  |  |  |
| 5-FAM-CPMB-0012: CPS-001 cyclic peptide scaffold, Gal-2 GalNAc linker, 5-FAM label; FIG. 14B (KEKGKG; not fully specified; cyclised or stapled) | 1.2 | 19.6 | 74.2 | 95.9 |  |  |  |  |  |  |  |
| 5-FAM-CPMB-0014: CPS-001 cyclic peptide scaffold, Gal-4 GalNAc linker, 5-FAM label; FIG. 14D (KEKGKG; cyclised or stapled) | 2.3 | 24.4 | 71.0 | 96.5 |  |  |  |  |  |  |  |
| 5-FAM-CPMB-0015: CPS-001 cyclic peptide scaffold, Gal-5 GalNAc linker, 5-FAM label; FIG. 14E (KEKGKG; cyclised or stapled) | 16.3 | 36.3 | 89.6 | 99 |  |  |  |  |  |  |  |
| 5-FAM-CPMB-0021: CPS-002 cyclic peptide scaffold, Gal-1 GalNAc linker, 5-FAM label; FIG. 14F (KEKGKG; D-residues; cyclised or stapled) | 6.8 | 46.1 | 88.7 | 98.8 |  |  |  |  |  |  |  |
| 5-FAM-CPMB-0025: CPS-002 cyclic peptide scaffold, Gal-5 GalNAc linker, 5-FAM label; FIG. 14H (KEKGKG; D-residues; cyclised or stapled) | 1.6 | 30 | 83.1 | 98.2 |  |  |  |  |  |  |  |
| 5-FAM-CPMB-0031-Ac: negative control, cyclic peptide w/o tri-GalNAc; CPS-003, Gal-1; FIG. 14R (KEKGKG; D-residues; cyclised or stapled) [reference compound] | 0.1 | 0.1 | 0.2 | 0.4 |  |  |  |  |  |  |  |
| 5-FAM-CPMB-0031: CPS-003 cyclic peptide scaffold, Gal-1 GalNAc linker, 5-FAM label; FIG. 14I (KEKGKG; D-residues; cyclised or stapled) | 6.0 | 44.2 | 87.8 | 98.6 |  |  |  |  |  |  |  |
| 5-FAM-CPMB-0033: CPS-003 cyclic peptide scaffold, Gal-3 GalNAc linker, 5-FAM label; FIG. 14J (KEKGKG; D-residues; cyclised or stapled) | 5.3 | 34.5 | 82.9 | 98.2 |  |  |  |  |  |  |  |
| 5-FAM-CPMB-0034: CPS-003 cyclic peptide scaffold, Gal-4 GalNAc linker, 5-FAM label; FIG. 14K (KEKGKG; D-residues; cyclised or stapled) | 2.0 | 25.6 | 73.6 | 95.6 |  |  |  |  |  |  |  |
| 5-FAM-CPMB-0035: CPS-003 cyclic peptide scaffold, Gal-5 GalNAc linker, 5-FAM label; FIG. 14L (KEKGKG; D-residues; cyclised or stapled) | 11.1 | 63.2 | 95.2 | 99.5 | 5.7 | relatively higher binding ability |  |  |  |  |  |
| 5-FAM-CPMB-0311: CPS-031 cyclic peptide scaffold, Gal-1 GalNAc linker, 5-FAM label; FIG. 14M (KEKAKA; cyclised or stapled) | 3.1 | 20.8 | 68.8 | 93.3 |  |  |  |  |  |  |  |
| 5-FAM-CPMB-0313: CPS-031 cyclic peptide scaffold, Gal-3 GalNAc linker, 5-FAM label; FIG. 14N (KEKAKA; cyclised or stapled) | 3.0 | 24.6 | 73.2 | 95.1 |  |  |  |  |  |  |  |
| cyclo([dK]([Gal‑3-GalNAc])[dE]([Linker2-5FAM])[dK]([Gal‑3-GalNAc])G[dK]([Gal‑3-GalNAc])G) [5-FAM-CPMB-0023] |  |  |  |  |  |  | 47.2 | 91.2 | 6.2 | 99.2 | 8.6 |
| cyclo(K([Gal‑3-GalNAc])[dE]([Linker2-5FAM])K([Gal‑3-GalNAc])GK([Gal‑3-GalNAc])G) [5-FAM-CPMB-0033] |  |  |  |  |  |  | 34.5 | 82.9 | 5.3 | 98.2 |  |
| cyclo([dK]([Gal‑1-GalNAc])[dE]([Linker2-5FAM])[dK]([Gal‑1-GalNAc])G[dK]([Gal‑1-GalNAc])G) [5-FAM-CPMB-0021] |  |  |  |  |  |  | 46.1 | 88.7 | 6.8 | 98.8 |  |
| KEKGKG (head-to-tail cyclic; D-Lys at the three Lys positions and D-Glu; each D-Lys side chain carries GalNAc via linker Gal-5; D-Glu side chain carries Linker2 with 5-FAM) [5-FAM-CPMB-0025] |  |  |  |  |  |  | 30 | 83.1 | 1.6 | 98.2 |  |
| cyclo(K([Gal‑1-GalNAc])[dE]([Linker2-5FAM])K([Gal‑1-GalNAc])GK([Gal‑1-GalNAc])G) [5-FAM-CPMB-0031] |  |  |  |  |  |  | 44.2 | 87.8 | 6 | 98.6 |  |
| KEKGKG (head-to-tail cyclic; D-Glu; each Lys side chain carries GalNAc via linker Gal-5; D-Glu side chain carries Linker2 with 5-FAM) [5-FAM-CPMB-0035] |  |  |  |  |  |  | 63.2 | 95.2 | 11.1 | 99.5 | 5.7 |
| KEKGKG (head-to-tail cyclic; D-Glu; each Lys side chain carries GalNAc via linker Gal-4; D-Glu side chain carries Linker2 with 5-FAM) [5-FAM-CPMB-0034] |  |  |  |  |  |  | 25.6 | 73.6 | 2 | 95.6 |  |
